Assay results: US11058688B2, “Imidazopiperazine inhibitors of transcription activating proteins” (Board of Regents, The University of Texas System, priority 2018, dated 2021)

Legend:
[1] = biological target: GST-CBP(1081-1197) bromodomain (Homo sapiens (Human), UniProt Q92793); assay: CBP AlphaScreen Assay; details: binding to biotin-H4(1-21) Ac-K5/8/12/16 peptide
Procedure, shortened: (§1)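 IC50 values derived by variable-slope dose-response fit between negative and DMSO control signals. AlphaScreen signal reports bromodomain association with an H4(1-21) peptide acetylated at K5, K8, K12 and K16.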

BRD4(49-170) bromodomain = BRD4(49-170) bromodomain (Homo sapiens (Human), UniProt O60885); assay: BRD4 AlphaScreen Assay; details: binding to biotin-H4(1-21) Ac-K5/8/12/16 peptide
Procedure, shortened: as §1

Sequence of GST-CBP(1081-1197) bromodomain (Q92793 1081-1197): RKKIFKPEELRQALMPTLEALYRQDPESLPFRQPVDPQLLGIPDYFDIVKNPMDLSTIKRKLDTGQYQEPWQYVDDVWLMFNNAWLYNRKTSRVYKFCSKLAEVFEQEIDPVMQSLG

Compound	IC50 [1]	IC50 (BRD4(49-170) bromodomain)
CNC(=O)N1CCn2c(C3CCC(F)(F)CC3)nc(-c3cccc4cc(-c5cnc(C)s5)ncc34)c2C1 [Example 97, 3-(4,4-difluorocyclohexyl)-N-methyl-1-(3-(2-methylthiazol-5-yl)isoquinolin-8-yl)-5,6-dihydroimidazo[1,5-a]pyrazine-7(8H)-carboxamide]	0.001 µM	3.32 µM
CC(=O)N1CCn2c(C3CC3)nc(N3CCCc4cc(-c5ccnc(C(F)(F)F)c5)ccc43)c2C1 [Example 118, 1-(3-cyclopropyl-1-(6-(2-(trifluoromethyl)pyridin-4-yl)-3,4-dihydroquinolin-1(2H)-yl)-5,6-dihydroimidazo[1,5-a]pyrazin-7(8H)-yl)ethan-1-one]	0.715 µM	> 25 µM
CNC(=O)N1CCn2c(C3CCOCC3)nc(-c3c(F)ccc4cc(-c5cn(C)nc5C)ncc34)c2C1 [Example 73, 1-(3-(1,3-dimethyl-1H-pyrazol-4-yl)-7-fluoroisoquinolin-8-yl)-N-methyl-3-(tetrahydro-2H-pyran-4-yl)-5,6-dihydroimidazo[1,5-a]pyrazine-7(8H)-carboxamide]	0.04 µM	> 25 µM
CC(=O)N1CCn2c(C3CC3)nc(N3CCCc4cc(-c5cnn(C6CCOCC6)c5)ccc43)c2C1 [Example 109, 1-(3-cyclopropyl-1-(6-(1-(tetrahydro-2H-pyran-4-yl)-1H-pyrazol-4-yl)-3,4-dihydroquinolin-1(2H)-yl)-5,6-dihydroimidazo[1,5-a]pyrazin-7(8H)-yl)ethan-1-one]	0.349 µM	13.8 µM
CNC(=O)N1CCn2c(C3CC3)nc(-c3cncc4cc(-c5cnn(C)c5)c(C(F)F)cc34)c2C1 [Example 40, 3-Cyclopropyl-1-(6-(difluoromethyl)-7-(1-methyl-1H-pyrazol-4-yl)isoquinolin-4-yl)-N-methyl-5,6-dihydroimidazo[1,5-a]pyrazine-7(8H)-carboxamide]	0.002 µM	4.78 µM
CC(=O)N1CCn2c(C3CC3)nc(N3CCCc4cc(-c5ccncc5)ccc43)c2C1 [Example 114, 1-(3-cyclopropyl-1-(6-(pyridin-4-yl)-3,4-dihydroquinolin-1(2H)-yl)-5,6-dihydroimidazo[1,5-a]pyrazin-7(8H)-yl)ethan-1-one]	0.615 µM	> 25 µM
CNC(=O)N1CCn2c(C3CCC(F)(F)C3)nc(-c3cccc4nc(-c5cnn(C)c5)c(C(F)F)cc34)c2C1 (stereo not drawn) [Example 61, 3-(3,3-difluorocyclopentyl)-1-(3-(difluoromethyl)-2-(1-methyl-1H-pyrazol-4-yl)quinolin-5-yl)-N-methyl-5,6-dihydroimidazo[1,5-a]pyrazine-7(8H)-carboxamide]	0.025 µM	13.9 µM
CNC(=O)N1CCn2c(C3CC3)nc(-c3cccc4cc(N5CCOCC5)ncc34)c2C1 [Example 18, 3-cyclopropyl-N-methyl-1-(3-morpholinoisoquinolin-8-yl)-5,6-dihydroimidazo[1,5-a]pyrazine-7(8H)-carboxamide]	0.05 µM	> 25 µM
CC(=O)N1CCn2c(C3CC3)nc(N3CCCc4cc(-c5cnn(C6CC6)c5)ccc43)c2C1 [Example 108, 1-(3-cyclopropyl-1-(6-(1-cyclopropyl-1H-pyrazol-4-yl)-3,4-dihydroquinolin-1(2H)-yl)-5,6-dihydroimidazo[1,5-a]pyrazin-7(8H)-yl)ethan-1-one]	0.148 µM	14.3 µM
CNC(=O)N1CCn2c(C3CC3)nc(-c3cccc4nc(N5CC6(COC6)C5)c(C#N)cc34)c2C1 [Example 102, 1-(3-cyano-2-(2-oxa-6-azaspiro[3.3]heptan-6-yl)quinolin-5-yl)-3-cyclopropyl-N-methyl-5,6-dihydroimidazo[1,5-a]pyrazine-7(8H)-carboxamide]	0.019 µM	> 25 µM
CNC(=O)N1CCn2c(C3CC3)nc(-c3c(F)ccc4cc(-c5cnc(C)s5)ncc34)c2C1 [Example 22, 3-Cyclopropyl-1-(7-fluoro-3-(2-methylthiazol-5-yl)isoquinolin-8-yl)-N-methyl-5,6-dihydroimidazo[1,5-a]pyrazine-7(8H)-carboxamide]	0.003 µM	7.06 µM
CC(=O)N1CCn2c(C3CC3)nc(-c3cnc4c(c3)c(-c3cnn(C)c3)nn4C)c2C1 [Example 26, 1-(3-cyclopropyl-1-(1-methyl-3-(1-methyl-1H-pyrazol-4-yl)-1H-pyrazolo[3,4-b]pyridin-5-yl)-5,6-dihydroimidazo[1,5-a]pyrazin-7(8H)-yl)ethan-1-one]	0.181 µM	> 25 µM
CNC(=O)N1CCn2c(C3CCC(F)(F)CC3)nc(-c3cccc4cc(-c5cn(C)nc5C)ncc34)c2C1 [Example 76, 3-(4,4-difluorocyclohexyl)-1-(3-(1,3-dimethyl-1H-pyrazol-4-yl)isoquinolin-8-yl)-N-methyl-5,6-dihydroimidazo[1,5-a]pyrazine-7(8H)-carboxamide]	0.003 µM	11.9 µM
CC(=O)N1CCn2c(C3CCOCC3)nc(-c3ccc4c(c3)c(-c3cnn(C)c3)nn4C)c2C1 [Example 104, 1-(1-(1-methyl-3-(1-methyl-1H-pyrazol-4-yl)-1H-indazol-5-yl)-3-(tetrahydro-2H-pyran-4-yl)-5,6-dihydroimidazo[1,5-a]pyrazin-7(8H)-yl)ethan-1-one]	0.107 µM	3.73 µM
CNC(=O)N1CCn2c(C3CC(F)(F)C3)nc(-c3cccc4nc(-c5cnn(C)c5)c(C(F)(F)F)cc34)c2C1 [Example 20, 3-(3,3-Difluorocyclobutyl)-N-methyl-1-(2-(1-methyl-1H-pyrazol-4-yl)-3-(trifluoromethyl)quinolin-5-yl)-5,6-dihydroimidazo[1,5-a]pyrazine-7(8H)-carboxamide]	0.018 µM	25 µM
